The structures appear in SMILES notation.

For series [1], the system named is scopolamine-induced amnesia. The experiment in a line: Passive avoidance, scopolamine-induced memory impairment. The format is in vivo, male Wistar rats. The conditions noted are these: 0.1, 0.3 and 3.0 mg/kg oral, 30 minutes before acquisition trial; scopolamine 0.5 mg/kg i.p. As for the experimental part:
Cutoff latency was set at 600 seconds.
Rats were treated i.p. with scopolamine (0.5 mg/kg) 15 minutes before the acquisition trial.

Series [2] concerns extracellular levels of ACh in hippocampus. Description: ACh release in hippocampus, microdialysis in freely moving rats. The class given is in vivo. As to conditions: for ACh content in perfusate increased: hippocampus. As for the experimental part: ACh content in perfusate obtained from hippocampus (Bregma, A: −5.8 mm, L: 5.0 mm, H: 4.0 mm) of brain were continuously detected by means of HPLC and ECD through the microdialysis system using freely moving rats (See Messamore and Kawashima, supra). After an equilibration period, five fractions were allowed to obtain basal ACh content. Test substances were injected i.p., and thereafter, microdialytic analysis was conducted for 3 hr.

The test system of a further series is SEP-lesioned rats. The experiment in a line: Eight-arm radial maze, medial septal nucleus (SEP) lesion-induced deficit. The class given is in vivo, male Wistar rats. The conditions noted are these: 3.0 mg/kg/day, repeated treatment for 2 weeks. The method, then: Using male Wistar rats, the anti-amnestic effects of Cm.A on spatial cognition was evaluated using an eight-arm radial maze task. After repeated trials for spatial cognition, memory-established rats (which had more than 7 correct choices and less than one error) were utilized.
SEP (Bregma, A: 0.2 mm, L: −1.0 mm, H: −5.8 mm) was lesioned by microinjection with ibotenic acid (10 μg) similarly to that of the BF lesion of Example 4A(3).

The next series has as its system Cynomologous monkeys. The experiment in a line: Hepatotoxic analysis, two-week oral study. On Autopsy, organ weight and histopathology: key: − no remarkable change; ↑ increase; ↓ decrease; + slight; ++ severe (diarrhea). On Blood biochemistry: key: − no remarkable change; ↑ increase; ↓ decrease; + slight; ++ severe (diarrhea). On Body weight: key: − no remarkable change; ↑ increase; ↓ decrease; + slight; ++ severe (diarrhea). The conditions noted are these: 5 mg/kg/day oral, 2 weeks. The format is in vivo. An excerpt:
The following parameters were examined: body weight, clinical signs, food consumption, blood biochemistry (GOT, GPT, ALP, LDH, γ-GTP, ChE, Bil, T.Pro, Alb, A/G ratio, T.Cho, NEFA, TG). After the administration period, the animals were sacrificed and autopsied. Organs and tissues were weighed, then examined histopathologically.

A further series deals with BF-lesioned rats. The experiment in a line: Passive avoidance, basal forebrain (BF) lesion-induced memory impairment.

Procedure for BF-lesioned rats: Using male Wistar rats, passive-avoidance studies were conducted using a step through-type, 2 compartment (light and dark) box. In the acquisition trial, at the time when the animal entered the dark area, a guillotine door was closed and an electric shock (0.5˜0.8 mA for 3 seconds) was delivered to the animal. After 24 hours, the retention trial was conducted: the rat was put in the light area and the time until the animal entered the dark area (latency) was measured. Cutoff latency was set at 600 seconds. Test substances were orally administered 30 minutes before the acquisition trial.
After 2 weeks, the acquisition trial was conducted.

For `COc1c2c(nc3ccccc13)CN(CCC1CCN(Cc3ccccc3)CC1)C2=O` [Cm.A, 2-[2-(1-benzylpiperizin-4-yl)ethyl]-2,3-dihydro-9-methoxy-1H-pyrrolo[3,4-b]quinolin-1-one hemifumarate], the “latency in retention trial, reversal of scopolamine effect” value in series [1] is reported as “significantly reversed the effect of scopolamine”. The “centrally acting cholinergic symptoms (tremor, chewing and yawning)” value in series [2] (hippocampus study, i.p., data not shown) is “Few centrally acting cholinergic symptoms”. In series [2] (10 mg/kg i.p.), the “ACh content in perfusate increased” value turned out to be 164%. In series [2] (30 mg/kg i.p.), the “ACh content in perfusate increased” value was determined as 552%. For the same compound, the “deficit of spatial memory” value in the series with SEP-lesioned rats is “significantly improved the deficit of spatial memory”. Moreover, in the series with Cynomologous monkeys, the “clinical signs during the dosing period” value is listed as “caused soft stools, but to a lesser extent than the other two compounds” and the hepatotoxicity entry is “no hepatotoxicity”. In addition, in the series on Cynomologous monkeys (F), the “Autopsy, organ weight and histopathology” value was “−”; the Blood biochemistry entry is “−”; the Body weight entry is given as “−”; the Clinical signs softstool entry is given as “+”. For the same compound, in the series with Cynomologous monkeys (F), the Clinical signs vomiting entry is reported as “−” and the Food consumption entry is given as “−”. For the same compound, in the series with Cynomologous monkeys (M), the “Autopsy, organ weight and histopathology” value was “−”; the Blood biochemistry result is “−”; the Body weight result is “−”; the Clinical signs softstool entry is on record as “+”. In the series on Cynomologous monkeys (M), the Clinical signs vomiting result is “−” and the Food consumption result is given as “−”. In the series on BF-lesioned rats (0.03~0.3 mg/kg/day for 1 week), the “memory deficit induced by BF-lesion, repeated doses” value is “improvement in recovery as potently as or more potently than THA and E2020”. In addition, the “memory deficit induced by BF-lesion, single dose” value with BF-lesioned rats (single dose 0.03~1.0 mg/kg) is reported as “partially, but significantly, recovered the memory deficit”.

The values above are taken from patent publication US6586596B2, “Acetylcholine enhancers” (priority 1998, dated 2003).
